The assay relates to biofilms. The assay can be described thus: Biofilm formation on HAP discs pre-treated with a simple solution of lysine. Conditions: after 48 h, visual. The class given is cell-based. From the text:
We pre-treated HAP discs with a simple solution of lysine to see how an overabundance of free lysine would affect biofilm formation.

On to `NCCCC[C@H](N)C(=O)O` [lysine], for which the “appearance of biofilms after lysine pre-treatment” value is “visually were overgrown”.

The values above are taken from US10130571B2, “Dentifrice Comprising Zinc-Amino Acid Complex and Phosphates” (Colgate-Palmolive Company, priority 2014, dated 2018).
